The target in one data set is ERK2 kinase (Homo sapiens (Human), UniProt P28482). As to the kind of experiment: ERK2 in vitro kinase activity assay (33P-ATP, MBP substrate, filter-binding). In kind it is biochemical. As to the method:
The ability of the compound to inhibit ERK1 and ERK2 kinase activity was measured.
20 mM Hepes (pH 7.5), 10 mM MgCl2, 1 mM ethylenebis(oxyethylenenitrilo)tetraacetic acid (EGTA), 0.02% Brij35, 0.02 mg/mL bovine serum albumin (BSA), 0.1 mM Na3VO4, 2 mM dithiothreitol (DTT), 1% DMSO.
The assay compound was dissolved in 100% DMSO to prepare a stock solution of specific concentration. The compound was serially diluted in DMSO solution using Integra Viaflo Assist smart pipette.
• 1) The substrate MBP was prepared in freshly prepared reaction buffer; • 2) ERK1 (or ERK2) kinase was added to the above-mentioned MBP solution and mixed gently; • 3) The compound dissolved in 100% DMSO was added to the kinase reaction system using ultrasound technology (Echo550; nanoliter range), and the mixture was incubated at room temperature for 20 minutes; • 4) 33P-ATP (specific concentration of […]) was added to the reaction system, and the reaction was started at this time; • 5) The mixture was incubated at room temperature for 2 hours; • 6) The amount of radioactivity was detected by filter-binding method; • 7) ERK1 (or ERK2) kinase activity was calculated as the ratio of the remaining kinase activity in the assay sample to the kinase activity of the control group (treated by DMSO). Curve was fitted using Prism (GraphPad software) and IC50 values were calculated. • 5.

Data set [1] can be described thus: In vivo PK study in SD rats. On the set-up: species or system rat. The settings on record: male SD rats. As to the method: Male SD rats were used as assay animals. After a single administration, the plasma concentration of the compound was measured and the pharmacokinetic behavior was evaluated.
Six healthy adult male SD rats were selected, wherein 3 rats were in an intravenous injection group and 3 rats were in an oral group. The vehicle in the intravenous injection group was 5% DMSO+95% (20% HP-β-CD). The compound to be assayed was mixed with an appropriate amount of vehicle for intravenous injection, vortexed and sonicated to prepare a clear solution of 0.2 mg/mL. The clear solution was filtered by a microporous membrane, and then ready for use. The vehicle in the oral group was 5% DMSO+95% (20% HP-β-CD). The compound to be assayed was mixed with the vehicle, vortexed and sonicated to prepare a solution of 1 mg/mL. SD rats were administered 1 mg/kg intravenously or 10 mg/kg orally, and then whole blood was collected for a certain period. Plasma was prepared. The drug concentration was analyzed by LC-MS/MS method, and the pharmacokinetic parameters were calculated by Phoenix WinNonlin software (Pharsight, USA).

Data set [2] can be described thus: In vivo PK study in beagle dogs. On the set-up: species or system beagle dog. The settings on record: male beagle dogs. As to the method:
Male beagle dogs were used as assay animals. After a single administration, the plasma concentration of the compound was measured and the pharmacokinetic behavior was evaluated.
Five healthy adult male beagle dogs were selected, wherein 2 were in an intravenous injection group, and 3 were in an oral group. The vehicle in the intravenous injection group was 5% DMSO+95% (20% HP-β-CD). The compound to be assayed was mixed with an appropriate amount of vehicle for intravenous injection, and dissolved with stirring to prepare a clear solution of 0.4 mg/mL. The clear solution was filtered by a microporous membrane, and then ready for use. The vehicle in the oral group was 5% DMSO+95% (20% HP-β-CD). The compound to be assayed was mixed with the vehicle, and dissolved with stirring to prepare a solution of 0.3 mg/mL. […] were administered 1 mg/kg intravenously or 3 mg/kg orally, and then whole blood was collected for a certain period. Plasma was prepared. The drug concentration was analyzed by LC-MS/MS method, and the pharmacokinetic parameters were calculated by Phoenix WinNonlin software (Pharsight, USA).

For another data set, the system named is mouse plasma albumin. The data set can be described thus: Plasma protein binding (ultracentrifugation), mouse. Further: tested at 0.2 µM. In kind it is in vitro ADME. How it is done:
The binding degree of the assay compound to human/mouse/rat/canine/monkey plasma albumin was studied.
• 1) Matrix preparation: on the day of the assay, plasma was thawed in cold water and centrifuged at 3220 rpm for 5 min to remove all clots. The pH of the resulting plasma was measured and adjusted to 7.4±0.1 using 1% phosphoric acid or IN sodium hydroxide as needed. • 2) Dilution procedure for the assay compound: the assay compound was dissolved in dimethyl sulfoxide (DMSO) to prepare stock solutions with concentrations of 10 mM and 2 mM, respectively. A 40 μM working solution was prepared by diluting 2 μL of stock solution (2 mM) with 98 μL of DMSO. A 400 μM working solution of the control compound was prepared by diluting 10 μL of stock solution with 240 μL of DMSO. The working solution of the compound (5 μL) was mixed well with a blank matrix (995 μL) at a ratio of 1:200 to prepare a loading matrix.
• a) An equal volume of 30 μL of loading matrix (n=2) was transferred to a sample collection plate to prepare a time 0 (TO) sample for residue determination. The sample was immediately matched with the corresponding blank buffer to a final volume of 60 μL, and the volume ratio of plasma to buffer in each well was 1:1. […] The mixture was centrifuged at 4000 rpm for 20 min and 100 μL of supernatant from each sample was analyzed by LC-MS/MS.

The structures appear in SMILES notation.

ERK2 kinase, sequence (P28482 whole entry): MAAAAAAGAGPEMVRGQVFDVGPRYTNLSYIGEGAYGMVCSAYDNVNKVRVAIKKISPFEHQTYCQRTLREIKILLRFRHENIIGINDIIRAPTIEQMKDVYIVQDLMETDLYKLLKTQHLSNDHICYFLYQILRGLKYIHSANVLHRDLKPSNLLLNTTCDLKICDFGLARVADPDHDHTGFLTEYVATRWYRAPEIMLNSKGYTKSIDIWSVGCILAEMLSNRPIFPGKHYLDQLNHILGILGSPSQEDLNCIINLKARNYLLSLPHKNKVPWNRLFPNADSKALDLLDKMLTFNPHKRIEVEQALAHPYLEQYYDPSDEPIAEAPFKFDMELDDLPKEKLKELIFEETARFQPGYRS

A word on the IC50: it is the midpoint of a concentration-inhibition curve. As a reminder, the half-life is the time needed for the level to fall by half in the phase considered. Higher therefore signals slow loss. The term bioavailability denotes the share of a dose that reaches the circulation, judged against a reference dose that is usually intravenous. Higher therefore signals good availability. The term Cmax denotes the peak of the concentration-time curve. For the compound `Cc1cccc(CN2C(=O)c3nc(-c4nc(Nc5ccnn5C)ncc4C)sc3C23COC3)n1` [WX001], the IC50 at ERK2 kinase was 0.54 nM. The “Oral DNAUC” value in data set [1] (10 mg/kg orally, AUCPO/Dose) was found to be 1445.79 nM · h/mpk; in data set [2] (3 mg/kg orally, AUCPO/Dose), 2307.32 nM · h/mpk. Also, the clearance in data set [1] (rat, plasma, intravenous, 1 mg/kg intravenously or 10 mg/kg orally) is 13.4 mL/min/kg; in data set [2] (dog, plasma, intravenous, 1 mg/kg intravenously or 3 mg/kg orally), 10.1 mL/min/kg. The Vd in data set [1] (rat, plasma, intravenous, 1 mg/kg intravenously or 10 mg/kg orally, read-out: Vdss) was 1.08 L/kg; in data set [2] (dog, plasma, intravenous, 1 mg/kg intravenously or 3 mg/kg orally, read-out: Vdss), 1.29 L/kg. For the same compound, the half-life in data set [1] (rat, plasma, 1 mg/kg intravenously or 10 mg/kg orally) is 3.77 h; in data set [2] (dog, plasma, 1 mg/kg intravenously or 3 mg/kg orally) it was 3.48 h. Further, the bioavailability was determined as 49% in data set [1] (rat, plasma, 1 mg/kg intravenously, 10 mg/kg orally, oral bioavailability) and 60% in data set [2] (dog, plasma, 1 mg/kg intravenously, 3 mg/kg orally, oral bioavailability). Besides, the Cmax in data set [1] (rat, single dose, 1 mg/kg intravenously or 10 mg/kg orally, plasma) was 2500 nM; in data set [2] (dog, single dose, 1 mg/kg intravenously or 3 mg/kg orally, plasma), 1770 nM. Also, the “Plasma protein binding rate (unbound %)” value in the data set with mouse plasma albumin was found to be 11.7%.

The values are drawn from patent US20240309018A1, “THIAZOLE-LACTAM-SPIROHETEROCYCLIC COMPOUNDS AND APPLICATIONS THEREOF” (D3 BIO (WUXI) CO., LTD, priority 2021, published 2024).
